Test results from US10561703B2, “Method of modulating sex hormone levels using a sex hormone secretion modulator” (GEMVAX & KAEL CO., LTD., priority 2013, dated 2020).

Columns and labels:
[1] = test system: GnRH mRNA; experiment: Relative GnRH mRNA expression in serum, real-time qPCR; format: in vivo, Sprague-Dawley (SD) rats; conditions: 100 mg/kg sc, 4 hr post-administration, Day 1
Experimental: Sprague-Dawley (SD) rats were obtained from Orient Bio (Gyronggi-do, South Korea), and seven-week-old rats were used for the study. Rat were administered by subcutaneous (sc) injection of PEP-1 (100 mg/kg) twice (at Day 1 and at Day 7) during the seven day study period. Blood samples (1.4 mL) were collected at Day 0 (before the administration of PEP-1), at Day 1 (4 hr and 8 hr post injection), and at Day 7 (4 hr post injection). Serum samples obtained from the blood were used for the experiment. Serum samples prepared from the blood collected at Day 1 (4 hr post injection) were used for the experiment. The animal care and procedures were approved and in accordance with the Korea Animal Medical Science Institute (KAMSI) IACUC.
RNA isolation and cDNA synthesis from the serum samples. The external control, miRNeasy Serum/Plasma Spike-In Control was added in each serum sample prior to the RNA extraction. […]
Real-time qPCR was performed using the RT2 SYBR Green qPCR Mastermix kit (Qiagen) with a CFX96 Real-Time System (Bio-Rad, Hercules, Calif., USA). Data was analyzed by CFX Manager™ Software V3.0 using the ΔΔCt method.
Rat serum samples obtained from the blood collected at 4 hr post-administration of PEP-1 (100 mg/kg) on the 1st day of the experiment were analyzed for the mRNA expression of gonadotropin-releasing hormone (GnRH). […]

[2] = test system: WPMY-1; experiment: Cell proliferation (CCK-8) in prostate mesenchymal cell line; format: cell-based
Experimental: When testosterone is injected into the body, testosterone becomes dihydrotestosterone (DHT) due to 5α-reductase, which stimulates the proliferation of prostate cells and induces benign prostatatic hyperplasia (BPH). Based on these facts, a PEP-1 (GV1001) injection experiment was performed for the inhibition of proliferation of prostatic cells in the following manner: The cell lines were mesenchymal cell lines (WPMY-1) and epithelial cell lines (RWPE-1) of prostates obtained from BPH animal models. […] Observation of changes in the proliferation was performed by suctioning a culture medium, adding 10 μL of CCK-8 solution to each well, and measuring an optical density at 450 nm for 1 hour to about 4 hours.

In the case of “EARPALLTSRLRFIPK (listed as Homo sapiens) [PEP-1, hormone secretion modulator / GnRH analog]”, the “Relative GnRH mRNA expression in serum” value ([1]; female rats) is reported as “increased the relative GnRH mRNA expression”, the “Relative GnRH mRNA expression in serum” value ([1]; male rats) is reported as “increased the relative GnRH mRNA expression” and the “Cell proliferation (optical density at 450 nm) versus untreated cells” value ([2]; WPMY-1, 100 and 200 μM GV1001, no DHT) is reported as “did not show a substantial difference in optical densities”. The “Inhibition of DHT-induced cell proliferation” value ([2]; WPMY-1, 100 and 200 μM GV1001 with 25 nM DHT) was “substantial inhibition effects on proliferation”.
